Measured values as given in US20050100507A1, “Chemotactic peptide antagonists for imaging sites of inflammation” (Bracco Imaging S.p.A., priority 1998, published 2005).
Square brackets hold non-standard residues; d marks the D form. Ends that are not written are not given here. * marks the point of attachment. Acetyl(9-fluorenyl) = O=C(CC1c2ccccc2-c2ccccc21)*; Adamantane1carbonyl = O=C(C12CC3CC(CC(C3)C1)C2)*; N,N‑diethylcarbamoyl = CCN(CC)C(=O)*; Cyclopropanecarbonyl = O=C(C1CC1)*; Nle = CCCC[C@H](N)C(=O)O

Legend:
[1] = target: T1, Rat FPR (Rattus norvegicus, UniProt D4A7Q2); assay: Competition binding with 6 nM 3H-fMLF to elicited rat PMNs; details: for competition binding of N-terminal modified NleLFK peptides (FIG. 8): peptides at 1 uM and 10 uM, result in words
T1 construct: endogenous in cells; host or cells: glycogen-elicited peritoneal neutrophils (PMNs) of Sprague-Dawley rats
T1 sequence (D4A7Q2 1-355): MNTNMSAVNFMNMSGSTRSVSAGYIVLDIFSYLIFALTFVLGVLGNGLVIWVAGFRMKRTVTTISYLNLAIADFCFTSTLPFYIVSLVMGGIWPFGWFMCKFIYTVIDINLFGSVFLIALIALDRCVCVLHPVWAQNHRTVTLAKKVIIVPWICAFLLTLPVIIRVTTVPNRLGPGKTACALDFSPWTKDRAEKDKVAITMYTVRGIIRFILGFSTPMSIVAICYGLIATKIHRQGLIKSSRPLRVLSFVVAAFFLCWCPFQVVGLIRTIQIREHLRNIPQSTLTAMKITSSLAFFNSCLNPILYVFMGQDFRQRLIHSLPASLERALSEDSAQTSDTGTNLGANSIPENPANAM
Procedure: (§1) Animals were sacrificed via administration of CO2 4 hours following peritoneal injection of 10 mL of 0.5% (w/v) oyster glycogen warmed to room temperature. Leukocyte harvesting via peritoneal lavage was performed using 20 mL of Hanks' buffered salt solution (HBSS−) containing 10 mM ethylene-diaminetetra-acetic acid (EDTA) disodium salt followed by a second lavage with 10 mL of HBSS− containing 10 mM EDTA. Exactly the same technique was performed on all rats with washes of the peritoneum prior to aspiration of samples approximating 1 minute. The volume of fluid recovered from each rat was approximately 20-25 mL and bloody lavages visibly containing significant red blood cell (RBC) populations were discarded.
(§2) Neutrophils isolated by peritoneal lavage were washed twice with 1 mL of HBSS− (without calcium chloride, magnesium chloride and magnesium sulfate) and centrifuged for ten minutes at 2000 rpms following each wash. PMNs utilized in functional assays were centrifuged at 25° C. while those used in binding assays were centrifuged at 4° C. to prevent internalization. A cold H2O RBC lysis was then performed with the addition of 9 mL of sterile ice-cold H2O and 1 mL of phosphate buffered saline (PBS) solution containing 0.1 M phosphate buffer, 0.027 M KCl and 1.37 M NaCl following resuspension of the sample in 1 mL of HBSS. Centrifugation was subsequently performed for ten minutes at 1600 rpms. White blood cell (WBC) differential stain containing saline, 2% acidic acid and phenol violet dye was used to identify the neutrophil population and trypan blue exclusion was used to determine viability of cells. As previously reported, 98% of leukocytes were neutrophils and approximately 95% of the cells were viable (Chen et al., 1996).
Competition binding assays for N-terminal capping groups and Re-libraries were conducted with 6 nM ^3H-fMLP in addition to the unlabelled competing analogue added at 1.0 uM and 10 uM to each well. […] Total binding in the competition assays was assessed in the presence of 1.0×10^6 PMNs per sample while non-specific binding was determined in the absence of cells. Each condition was performed in quadruplicate. Total activity added to each sample was determined from cpms obtained from a sample containing 6 nM ^3H-fMLF. Data was expressed as specific binding in fmols and converted to percent of total ^3H-fMLF binding (% control).
After a 1 hour incubation period at 4° C., the samples were harvested with the Tomtec Mach III Cell Harvester by vacuum aspiration onto 1.5 um pore size Skatron glass-fibre filter mats pre-treated with 0.1% polyethylenimine (w/v) for approximately 24 hours. Sample wells received three consecutive 12 second washes with 0.9% saline solution and 5 mL of liquid scintillation fluid was added to collected filters. Filters were counted for 2 minutes in the Beckman β-counter following exposure to scintillation fluid for 15 hours. Data was expressed in terms of specific binding in fmols converted to percent of total ^3H-fMLF binding (% control).
(§3) The curve-fitting program Prism was used to calculate KD, IC50 and EC50 values by fitting data to the one-site binding equations A, B and C respectively. • A. Equation: One site binding (hyperbola) Y=Bmax*X/(KD+X) • B. Equation: One site competition Y=Bottom+(Top−Bottom)/(1+10^(X−LogIC50)); with x=log (concentration) and y=binding • C. […] Additionally, Graph fit software was used to perform Scatchard analysis of saturation binding data and to confirm KD and Bmax values generated by Prism software.

[2] = system: human neutrophils; assay: Myeloperoxidase release from human neutrophils; assay type: cell-based; details: result in words; for inhibition of MPO release in fMLF-stimulated human neutrophils (FIG. 4): 10 uM compound, fMLF 10^−8 M and 10^−6 M, p<0.05; for stimulation of MPO release by the compound itself in human neutrophils: up to 10 uM compound, low fMLF (10^−14M, 10^−12M)
Procedure: Approximately 30 mL of venous blood was collected from healthy volunteers with 100 units of heparin per mL of blood. Samples were then mixed with 8 mL of 6% dextran solution and incubated at 37° C. for 1 hour for RBC sedimentation. Leukocyte-rich plasma was collected and centrifuged at 1500 rpm for 5 minutes. Cell pellets were resuspended in 35 mL of saline and 10 mL of lymphocyte separation medium was layered over prior to additional centrifugation at 1200 rpm for 30 minutes. Sedimented cells were washed once with 35 mL of saline and RBCs were lysed by resuspension in 1.8 mL of sterile H2O for 15 seconds. Isotonicity was restored with the addition of 0.2 mL of 10×HBSS− followed by the addition of 35 mL of saline. Centrifugation at 1500 rpm for 5 minutes was then performed. Following final washing of the PMN pellet with 35 mL of saline, cell viability was determined via trypan blue exclusion and cell number was determined.
(§4) 0.5×10^6 PMNs per sample were incubated in 96-well Millipore Multiscreen 0.65 um filter plates. In a final volume of 150 uL, 50 uL of the respective fMLP analogues (10 uM to 1 pM) and/or fMLP (10 uM to 1.0 uM) were incubated with isolated PMNs pre-treated with cytochalasin B (5 ug/mL) for 10 minutes. Following a 30 minute incubation period at room temperature, the supernatant was collected into a 96-well polypropylene plate with the Millipore vacuum apparatus. A stock solution of o-phenylenediamine (OPD) was made to contain 2.5 mg of OPD, 5 ul of H2O2 and 10 mL HBSS+ and supernatant samples were subsequently incubated with 50 uL of OPD solution. The reaction was stopped after 2 minutes by the addition of 2.5M H2SO4. Photometric analysis was performed with the Thermomax Microplate Reader with optical density (O.D.490) values being read at a wavelength of 490 nm. Absorbance was measured against a blank containing 150 μl of HBSS+ which was subtracted from wells containing cells and the various treatments. MPO release was expressed as a percentage of the total release of myeloperoxidase in control wells containing cells ±fMLF.

[3] = system: elicited rat PMNs; assay type: cell-based; details: MPO release, PMNs without fMLF, ± S.E.M.; for % Control (1 uM): test peptide 1 uM; for % Control (10 uM): test peptide 10 uM
Procedure: as §1, §2, §4, §3

[4] = system: elicited rat PMNs; assay: Myeloperoxidase release in elicited rat PMNs co-stimulated with 0.1 uM fMLF; assay type: cell-based; details: for antagonist function on MPO release in fMLF stimulated rat PMNs: 0.1 uM fMLF, inhibition at 10 uM, result in words; for % Control MPO release (1 uM capping group + 0.1 uM fMLF): 1 uM test peptide + 0.1 uM fMLF; for % Control MPO release (1 uM capping group + 0.1 uM fMLF) / % Control MPO Release (10 uM capping group + 0.1 uM fMLF): ± S.E.M.; for % Control MPO Release (10 uM capping group + 0.1 uM fMLF): 10 uM test peptide + 0.1 uM fMLF
Procedure: as §1, §2
as §4, with “In a final volume of 150 uL, 50 uL of the respective fMLP analogues (10 uM to 1 pM) and/or fMLP (10 uM to 1.0 uM) were incubated with isolated PMNs pre-treated with cytochalasin B (5 ug/mL) for 10 minutes.” left out

Row | Molecule | binding affinity, fold greater than N-t-BocMLF ([1]; from rat FPR IC50 values) | IC50 ([1]; elicited rat PMNs, 6 nM 3H-fMLF, 4° C. 1 hour, brackets = 95% confidence interval, read-out: Receptor Binding (IC50)) | competition binding of N-terminal modified NleLFK peptides (FIG. 8) ([1]; 6 nM 3H-fMLF, listed as N,N-diethylcarbamoyl-NleLFK) | % Control MPO release (1 uM capping group + 0.1 uM fMLF) [4] | % Control MPO Release (10 uM capping group + 0.1 uM fMLF) [4] | inhibition of MPO release in fMLF-stimulated human neutrophils (FIG. 4) [2] | stimulation of MPO release by the compound itself in human neutrophils [2] | % Control (1 uM) [3] | % Control (10 uM) [3] | competition binding of N-terminal modified NleLFK peptides (FIG. 8) ([1]; 6 nM 3H-fMLF, listed as 6) | antagonist function on MPO release in fMLF stimulated rat PMNs [4] | competition binding of N-terminal modified NleLFK peptides (FIG. 8) ([1]; 6 nM 3H-fMLF)
1 | CSCC[C@H](NC(=O)OC(C)(C)C)C(=O)N[C@@H](CC(C)C)C(=O)N[C@@H](Cc1ccccc1)C(=O)O [N-t-BocMLF, N-tert-butyloxycarbonylated-methionyl-leucyl-phenylalanine, reference compound] |  | 9.3 µM |  |  |  | inhibited MPO release from fMLF stimulated cells | did not induce release |  |  |  |  | 
2 | Capping Group 13: Adamantylcarbonyl N-terminal capping group attached to peptide NleLFK (Adamantane1carbonyl-[Nle]LFK) |  |  |  | 131.6 ± 30.9 % control | 128.6 ± 40.9 % control |  |  | 70.5 ± 14.9 % control | 71.7 ± 11.2 % control |  | exhibited antagonist function in fMLF stimulated cells | did not significantly decrease the amount of ^3H-fMLF binding

Now from value to molecule, other results behind:

Row | binding affinity, fold greater than N-t-BocMLF ([1]; from rat FPR IC50 values) | IC50 ([1]; elicited rat PMNs, 6 nM 3H-fMLF, 4° C. 1 hour, brackets = 95% confidence interval, read-out: Receptor Binding (IC50)) | competition binding of N-terminal modified NleLFK peptides (FIG. 8) ([1]; 6 nM 3H-fMLF, listed as N,N-diethylcarbamoyl-NleLFK) | % Control MPO release (1 uM capping group + 0.1 uM fMLF) [4] | % Control MPO Release (10 uM capping group + 0.1 uM fMLF) [4] | Molecule | inhibition of MPO release in fMLF-stimulated human neutrophils (FIG. 4) [2] | stimulation of MPO release by the compound itself in human neutrophils [2] | % Control (1 uM) [3] | % Control (10 uM) [3] | competition binding of N-terminal modified NleLFK peptides (FIG. 8) ([1]; 6 nM 3H-fMLF, listed as 6) | antagonist function on MPO release in fMLF stimulated rat PMNs [4] | competition binding of N-terminal modified NleLFK peptides (FIG. 8) ([1]; 6 nM 3H-fMLF)
3 | approximately 12 fold |  |  |  |  | ReO-CyclopropylCONH-nleu-leu-phe-trp-glu-lys(dimethylgly-t-butylgly-cys-gly)-gly-OH (Cyclopropanecarbonyl-[Nle]LFWEKG-OH; not fully specified (residue 6); printed as ReO-CyclopropylCONH-nleu-leu-phe-trp-glu-lys(dimethylgly-t-butylgly-cys-gly)-gly-OH; also: ReO chelate on Lys side chain) [ReORP553 17-01] | significantly inhibited the release of MPO | did not stimulate MPO release |  |  |  |  | 
4 |  |  | inhibit ^3H-fMLF binding | 283.3 ± 25.1 % control | 249.9 ± 6.2 % control | N,N-diethylcarbamoyl-NleLFK ({N,N‑diethylcarbamoyl}-[Nle]LFK) [Capping Group 6] |  |  | 113.8 ± 14.3 % control | 109.6 ± 3.3 % control | did not significantly decrease the amount of ^3H-fMLF binding | inhibited MPO release | 
5 |  |  |  | 161.7 ± 6.2 % control | 108.9 ± 28.5 % control | Capping Group 16: Fluorenylmethylcarbonyl N-terminal capping group attached to peptide NleLFK ({Acetyl(9-fluorenyl)}-[Nle]LFK) |  |  | 84.1 ± 27.6 % control | 59.9 ± 19.0 % control |  | exhibited antagonist function in fMLF stimulated cells | did not significantly decrease the amount of ^3H-fMLF binding
